Measured values: US12408664B2 (priority 2018, dated 2025)
Several values for one entry are separate records, joined by “and”; a condition that tells them apart may be missing. Equal entries are not always repeated.

Key:
dollar spot [1] = test: Golf Course 2: infected live turfgrass, visual detection of dollar spot; type: in vivo, Scerotinia homoeocarpa; details: 3-4 grams per square meter every 10 days, 5% (w/v) solution sprayed; 10 days following initial application
Experimental: Calcium propionate was dissolved in water to form a 5% (w/v) solution. […] The turfgrass was comprised primarily of Agrostis capillaris. The calcium propionate 5% (w/v) solution was sprayed onto the turfgrass at a concentration of 3-4 grams per square meter every 10 days.

S. homoeocarpa [2] = test: Established liquid cultures, two days calcium propionate then washout; type: cell-based, Scerotinia homoeocarpa
Experimental: To further examine the impact of calcium propionate on established liquid cultures, MEB was inoculated by plug transfer and cultures were allowed to grow for one to six days. Following this, calcium propionate was added to active cultures to a final concentration of 1%, 2%, or 5% (w/v); control cultures had no calcium propionate. Calcium propionate was then added to established one to six day old cultures and cultures were allowed to grow in the presence of calcium propionate for two days, after which, calcium propionate was washed out and cultures were returned to MEB only. Growth following calcium propionate washout was recorded over 14 days.

R. solani = test: Growth on PDA with calcium propionate fully integrated into the agarose; type: cell-based, Rhizoctonia solani; details: for Growth, R. solani: single plate
Experimental: (§1) In contrast to the zone of inhibition assays described in Examples 1-3, for this experiment, PDA with calcium propionate fully integrated into the agarose was prepared. Thus, inoculants were grown on plates in which calcium propionate was incorporated at a uniform concentration throughout the plate, rather than the zones of concentration established by simple diffusion in the zone of inhibition assays. The PDA plates were amended with 5, 7.5, 10, or 12% (w/v) calcium propionate. Growth diameter was recorded for 15 days post inoculation. The data shown in Table 3 represent the results of single plate tests.

G. graminis [3] = test: Plug transfer to PDA plates without calcium propionate (fungistatic or fungicidal); type: cell-based, Gaeumannomyces graminis
F. oxysporum = test: Fungal plugs on YPA or PDA amended with CaP; type: cell-based, Fusarium oxysporum; details: seven days, data not shown
Experimental: Cultures of F. oxysporum were grown on PDA medium until luxuriant. To test the effect of calcium propionate (CaP), fungal plugs were transferred to YPA or PDA amended with CaP and growth was monitored for seven days. YPA plates were amended with 1%, 4%, or 15% CaP.

G. graminis [4] = test: Zone of inhibition assay on PDA plates; type: cell-based, Gaeumannomyces graminis
Experimental: To test the efficacy of calcium propionate (CaP) against the four microbes listed above, zone of inhibition assays were performed. Wells were bored in potato dextrose agarose (PDA) plates then amended with […] calcium propionate at concentrations of 0.1%, 0.2%, 0.3%, 0.4%, and 0.5% (w/v). Control plates were amended with […] dH2O. Plates were inoculated using plugs from active cultures. Growth patterns were observed over seven days. Representative results with M. poae are shown at three days following inoculation (FIG. 1A) and seven days following inoculation (FIG. 1B).
The zone of inhibition assays described in Example 1 were performed using calcium propionate doses of 0.5%, 1%, 2%, 3%, and 4% (w/v). Growth diameter was recorded at 2, 5, and 7 days post inoculation. The data shown in Table 1 represent the average±standard deviation (SD) of two replicate plates for each strain tested.
Zone of inhibition assays using PDA plates amended with 5-12% (w/v) calcium propionate were performed as described above. As a control, plates were amended with a composition comprising propiconazole, a commonly used fungicidal treatment for microbe infection of turfgrass, sold under the trademark Banner MaxxII®. Growth diameter was recorded for 13 days post inoculation. The data shown in Table 2 represent the average±standard deviation (SD) of three replicate plates for each strain tested. Inoculants of S. homoeocarpa, M. poae, and R. solani generally grow to luxuriant culture, covering the entire surface of the plate (8.5 cm growth) in 7 days.

S. homoeocarpa [5] = test: Growth on PDA with calcium propionate fully integrated into the agarose; type: cell-based, Scerotinia homoeocarpa; details: for Growth, S. homeocarpa: single plate
Experimental: as §1

dollar spot [6] = test: Golf Course 1: infected live turfgrass, visual inspection for dollar spot; type: in vivo, Scerotinia homoeocarpa
Experimental: Calcium propionate was dissolved in water to form a 5% (w/v) solution. […] Zone 1 was left untreated, Zone 2 was treated with 2.5 grams calcium propionate per square meter, Zone 3 was treated with 5 grams of calcium propionate per square meter, and Zone 4 was treated with 10 grams of calcium propionate per square meter. The turfgrass was comprised primarily of Festuca rubra. The calcium propionate 5% (w/v) solution was sprayed onto the turfgrass.
The four zones were visually inspected for dollar spot after 10 days. […] In contrast, dollar spot could, still be visually detected in untreated Zone 1.
Thereafter, all of the zones (1-4) were treated with 5 grams of calcium propionate per square meter. The calcium propionate 5% (w/v) solution was sprayed onto the turfgrass every 10 to 14 days.

[7] = PDA with 5% (w/v) calcium propionate, day 4
[8] = PDA with 5% (w/v) calcium propionate, day 5
[9] = PDA with 5% (w/v) calcium propionate, day 8
[10] = PDA with 5% (w/v) calcium propionate, day 11
[11] = PDA with 5% (w/v) calcium propionate, day 15
[12] = PDA with 7.5% (w/v) calcium propionate, day 4
[13] = PDA with 7.5% (w/v) calcium propionate, day 5
[14] = PDA with 7.5% (w/v) calcium propionate, day 8
[15] = PDA with 7.5% (w/v) calcium propionate, day 11
[16] = PDA with 7.5% (w/v) calcium propionate, day 15
[17] = PDA with 10% (w/v) calcium propionate, day 4
[18] = PDA with 10% (w/v) calcium propionate, day 5
[19] = PDA with 10% (w/v) calcium propionate, day 8
[20] = PDA with 10% (w/v) calcium propionate, day 11
[21] = PDA with 10% (w/v) calcium propionate, day 15
[22] = PDA with 12% (w/v) calcium propionate, day 4
[23] = PDA with 12% (w/v) calcium propionate, day 5
[24] = PDA with 12% (w/v) calcium propionate, day 8
[25] = PDA with 12% (w/v) calcium propionate, day 11
[26] = PDA with 12% (w/v) calcium propionate, day 15

## CCC(=O)[O-].CCC(=O)[O-].[Ca+2] [calcium propionate]
Dollar spot [1]
  visual detection of dollar spot infection: could no longer be visually detected
S. homoeocarpa [2]; 1% or 2% (w/v) calcium propionate
  growth recovery over 14 days after removal, S. homoeocarpa: varying degrees of growth recovery
S. homoeocarpa [2]; 1%, 2% or 5% (w/v), established one to six day old cultures, two days
  growth while calcium propionate was present, S. homoeocarpa: growth was inhibited
S. homoeocarpa [2]; 5% (w/v) treatment
  growth recovery over 14 days after removal, S. homoeocarpa: no growth recovery was observed
S. homoeocarpa [2]; all concentrations tested (1-5% w/v)
  growth three days following removal of calcium propionate, S. homoeocarpa: continued growth inhibition
R. solani; [7]
  Growth, R. solani: 1.3 cm
R. solani; [8]
  Growth, R. solani: 1.7 cm
R. solani; [9]
  Growth, R. solani: 2.5 cm
R. solani; [10]
  Growth, R. solani: 3.2 cm
R. solani; [11]
  Growth, R. solani: 4.6 cm
R. solani; [12]
  Growth, R. solani: 0 cm
R. solani; [13]
  Growth, R. solani: 1 cm
R. solani; [14]
  Growth, R. solani: 1.2 cm
R. solani; [15]
  Growth, R. solani: 1.2 cm
R. solani; [16]
  Growth, R. solani: 2.0 cm and 2 cm
R. solani; [17]
  Growth, R. solani: 0 cm
R. solani; [18]
  Growth, R. solani: 0 cm
R. solani; [19]
  Growth, R. solani: 0 cm
R. solani; [20]
  Growth, R. solani: 0 cm
R. solani; [21]
  Growth, R. solani: 0 cm
R. solani; PDA with 10% and 12% (w/v) calcium propionate, 15 days
  growth inhibition, R. solani: fully inhibited growth
R. solani; [22]
  Growth, R. solani: 0 cm
R. solani; [23]
  Growth, R. solani: 0 cm
R. solani; [24]
  Growth, R. solani: 0 cm
R. solani; [25]
  Growth, R. solani: 0 cm
R. solani; [26]
  Growth, R. solani: 0 cm
G. graminis [3]; 5% (w/v) calcium propionate
  fungistatic or fungicidal effect, G. graminis: fungicidal effect
G. graminis [3]; plugs initially grown on 5, 7.5, 10 or 12% (w/v) calcium propionate, observed 14 days
  growth on unamended PDA after plug transfer, G. graminis: No growth was seen
F. oxysporum; YPA amended with 1% CaP
  F. oxysporum growth: not impacted
F. oxysporum; YPA amended with 4% or 15% CaP
  F. oxysporum growth: unable to grow
G. graminis [4]; 5-12% (w/v) calcium propionate, day 2, average ± SD of three plates
  Growth, G. graminis: 1.2 ± 0.3 cm
G. graminis [4]; 5-12% (w/v) calcium propionate, day 3, average ± SD of three plates
  Growth, G. graminis: 2.2 ± 0.3 cm
G. graminis [4]; 5-12% (w/v) calcium propionate, day 6, average ± SD of three plates
  Growth, G. graminis: 2.7 ± 0.3 cm
G. graminis [4]; 5-12% (w/v) calcium propionate, day 7, average ± SD of three plates
  Growth, G. graminis: 4.0±0.6 cm
G. graminis [4]; 5-12% (w/v) calcium propionate, day 10, average ± SD of three plates
  Growth, G. graminis: 5.9 ± 0.5 cm
G. graminis [4]; 5-12% (w/v) calcium propionate, day 13, average ± SD of three plates
  Growth, G. graminis: 8.3 ± 0.3 cm
G. graminis [4]; wells 0.1-0.5% (w/v) calcium propionate, observed over seven days
  growth inhibition, G. graminis: no growth inhibition was observed
G. graminis [4]; wells 0.5-4% (w/v) calcium propionate, 2 and 5 days post inoculation
  growth inhibition, G. graminis: growth inhibition
G. graminis [4]; wells 0.5-4% (w/v) calcium propionate, 7 days post inoculation
  growth difference versus control plates, G. graminis: no growth difference was observed
G. graminis [4]; wells 0.5-4% (w/v) calcium propionate, day 2, average ± SD of two plates
  Growth, G. graminis: 1.6 ± 0.1 cm
G. graminis [4]; wells 0.5-4% (w/v) calcium propionate, day 5, average ± SD of two plates
  Growth, G. graminis: 4.7 ± 0.2 cm
G. graminis [4]; wells 0.5-4% (w/v) calcium propionate, day 7, average ± SD of two plates
  Growth, G. graminis: 7 ± 0.1 cm
S. homoeocarpa [5]; [7]
  Growth, S. homeocarpa: 0 cm
S. homoeocarpa [5]; [8]
  Growth, S. homeocarpa: 0 cm
S. homoeocarpa [5]; [9]
  Growth, S. homeocarpa: 0 cm
S. homoeocarpa [5]; [10]
  Growth, S. homeocarpa: 0 cm
S. homoeocarpa [5]; [11]
  Growth, S. homeocarpa: 0 cm
S. homoeocarpa [5]; [12]
  Growth, S. homeocarpa: 0 cm
S. homoeocarpa [5]; [13]
  Growth, S. homeocarpa: 0 cm
S. homoeocarpa [5]; [14]
  Growth, S. homeocarpa: 0 cm
S. homoeocarpa [5]; [15]
  Growth, S. homeocarpa: 0 cm
S. homoeocarpa [5]; [16]
  Growth, S. homeocarpa: 0 cm
S. homoeocarpa [5]; [17]
  Growth, S. homeocarpa: 0 cm
S. homoeocarpa [5]; [18]
  Growth, S. homeocarpa: 0 cm
S. homoeocarpa [5]; [19]
  Growth, S. homeocarpa: 0 cm
S. homoeocarpa [5]; [20]
  Growth, S. homeocarpa: 0 cm
S. homoeocarpa [5]; [21]
  Growth, S. homeocarpa: 0 cm
S. homoeocarpa [5]; [22]
  Growth, S. homeocarpa: 0 cm
S. homoeocarpa [5]; [23]
  Growth, S. homeocarpa: 0 cm
S. homoeocarpa [5]; [24]
  Growth, S. homeocarpa: 0 cm
S. homoeocarpa [5]; [25]
  Growth, S. homeocarpa: 0 cm
S. homoeocarpa [5]; [26]
  Growth, S. homeocarpa: 0 cm
S. homoeocarpa [5]; any of the concentrations tested (5, 7.5, 10, 12% w/v), 15 days
  growth, S. homoeocarpa: no growth
Dollar spot [6]; Zone 2: 2.5 grams per square meter, 5% (w/v) solution sprayed, after 10 days
  visual detection of dollar spot: could no longer be visually detected
Dollar spot [6]; Zone 3: 5 grams per square meter, 5% (w/v) solution sprayed, after 10 days
  visual detection of dollar spot: could no longer be visually detected
Dollar spot [6]; Zone 4: 10 grams per square meter, 5% (w/v) solution sprayed, after 10 days
  visual detection of dollar spot: could no longer be visually detected
Dollar spot [6]; zones 1-4, 5 grams per square meter every 10 to 14 days, several months (late summer to early spring)
  visual detection of dollar spot: could not be visually detected
